≈ marks a conversion by molar mass, not a printed value.
Columns and labels:
[1] = tested on: Human immunodeficiency virus 1; assay: Antiviral activity against HIV1 3B infected in C8166 cells assessed as inhibition of syncytia formation; format: functional, organism-based; settings: Human immunodeficiency virus 1, 3B
[2] = Cytotoxicity against human C8166 cells after 3 days by MTT assay; format: cell-based
[3] = Therapeutic index, ratio of CC50 for human C8166 to EC50 for HIV1 3B

Question: What does the source list for Cc1cn([C@H]2C[C@H](N=[N+]=[N-])[C@@H](CO)O2)c(=O)[nH]c1=O [ZIDOVUDINE]?
Answer: EC50 [1]: 0.00324 µg/mL (≈ 0.0121 µM); CC50 at 72 h [2]: 1140 µg/mL (≈ 4260 µM); selectivity ratio [3]: 353000

Question: Which results are given for CC(=O)c1cn(S(=O)(=O)c2cccc([N+](=O)[O-])c2)c2cc(C)ccc12?
Answer: EC50 [1]: 1.02 µg/mL (≈ 2.85 µM); CC50 at 72 h [2]: 125 µg/mL (≈ 349 µM); selectivity ratio ([3]; C8166 cells): 122

Question: Which EC50 [1] does the source give for CC(=O)c1cn(S(=O)(=O)c2ccc(Cl)c([N+](=O)[O-])c2)c2ccccc12 here?
Answer: 3.43 µg/mL (≈ 9.06 µM)

Question: What about the CC50 at 72 h [2] of the same molecule?
Answer: 3.21 µg/mL (≈ 8.47 µM)

Question: What about the selectivity ratio ([3]; C8166 cells) of the same molecule?
Answer: 0.94

Question: For O=[N+]([O-])c1cccc(S(=O)(=O)n2ccc3ccccc32)c1, which EC50 [1] is on record?
Answer: 0.74 µg/mL (≈ 2.45 µM)

Question: What about the CC50 at 72 h [2] of the same molecule?
Answer: > 200 µg/mL

Question: What about the selectivity ratio ([3]; C8166 cells) of the same molecule?
Answer: > 270

Question: With CC(=O)c1cn(S(=O)(=O)c2ccc(Br)cc2)c2ccc(C#N)cc12 as the molecule, how does the EC50 [1] read?
Answer: > 200 µg/mL

Question: What about the CC50 at 72 h [2] of the same molecule?
Answer: > 200 µg/mL

Question: Which EC50 [1] does the source give for CC(=O)c1cn(S(=O)(=O)c2ccc(C)cc2)c2ccc([N+](=O)[O-])cc12 here?
Answer: > 200 µg/mL

Question: And the CC50 at 72 h [2]?
Answer: > 200 µg/mL

Question: With O=S(=O)(c1ccc(Br)cc1)n1ccc2ccccc21 as the molecule, how does the EC50 [1] read?
Answer: 20.4 µg/mL (≈ 60.7 µM)

Question: What about the CC50 at 72 h [2] of the same molecule?
Answer: > 200 µg/mL

Question: And the selectivity ratio ([3]; C8166 cells)?
Answer: > 9.79

Question: Which EC50 [1] does the source give for CC(=O)c1cn(S(=O)(=O)c2ccc(C)cc2)c2ccc(C#N)cc12 here?
Answer: 76.9 µg/mL (≈ 227 µM)

Question: And the CC50 at 72 h [2]?
Answer: 147 µg/mL (≈ 435 µM)

Question: What about the selectivity ratio ([3]; C8166 cells) of the same molecule?
Answer: 1.91

Question: What does the source list for O=S(=O)(c1ccccc1)n1ccc2ccccc21?
Answer: EC50 [1]: 0.93 µg/mL (≈ 3.61 µM); CC50 at 72 h [2]: 47.1 µg/mL (≈ 183 µM); selectivity ratio ([3]; C8166 cells): 50.7

Question: With CC(=O)c1cn(S(=O)(=O)c2ccccc2)c2ccc(C#N)cc12 as the molecule, how does the EC50 [1] read?
Answer: 57.5 µg/mL (≈ 177 µM)

Question: And the CC50 at 72 h [2]?
Answer: 66.2 µg/mL (≈ 204 µM)

Question: And the selectivity ratio ([3]; C8166 cells)?
Answer: 1.21

Question: Which results are given for CC(=O)c1cn(S(=O)(=O)c2ccc(Br)cc2)c2ccc([N+](=O)[O-])cc12?
Answer: EC50 [1]: 54.5 µg/mL (≈ 129 µM); CC50 at 72 h [2]: 70.4 µg/mL (≈ 166 µM); selectivity ratio ([3]; C8166 cells): 1.29

Question: For CC(=O)c1cn(S(=O)(=O)c2ccc(Cl)cc2)c2ccc(C#N)cc12, which EC50 [1] is on record?
Answer: 54.4 µg/mL (≈ 152 µM)

Question: And the CC50 at 72 h [2]?
Answer: 65.2 µg/mL (≈ 182 µM)

Question: And the selectivity ratio ([3]; C8166 cells)?
Answer: 1.19

Question: Which EC50 [1] does the source give for CC(=O)c1cn(S(=O)(=O)c2cccc([N+](=O)[O-])c2)c2ccccc12 here?
Answer: 2.12 µg/mL (≈ 6.16 µM)

Question: And the CC50 at 72 h [2]?
Answer: 164 µg/mL (≈ 477 µM)

Question: And the selectivity ratio ([3]; C8166 cells)?
Answer: 77.4

Question: With N#Cc1ccc2c(ccn2S(=O)(=O)c2ccccc2)c1 as the molecule, how does the EC50 [1] read?
Answer: 3.23 µg/mL (≈ 11.4 µM)

Question: What about the CC50 at 72 h [2] of the same molecule?
Answer: > 200 µg/mL

Question: What about the selectivity ratio ([3]; C8166 cells) of the same molecule?
Answer: > 61.9

Question: For CCc1ccc(S(=O)(=O)n2cc(C(C)=O)c3cc(C#N)ccc32)cc1, which EC50 [1] is on record?
Answer: 30.5 µg/mL (≈ 86.5 µM)

Question: What about the CC50 at 72 h [2] of the same molecule?
Answer: 113 µg/mL (≈ 320 µM)

Question: And the selectivity ratio [3]?
Answer: 3.7

Question: Which results are given for CC(=O)c1cn(S(=O)(=O)c2ccccc2)c2ccc([N+](=O)[O-])cc12?
Answer: EC50 [1]: 45.8 µg/mL (≈ 133 µM); CC50 at 72 h [2]: > 200 µg/mL; selectivity ratio ([3]; C8166 cells): > 4.36

— ChEMBL document CHEMBL1158612, “Anti HIV-1 agents 5: synthesis and anti-HIV-1 activity of some N-arylsulfonyl-3-acetylindoles in vitro” (Bioorg Med Chem Lett, 2010)
